Laboratory results taken from PubChem BioAssay (NCI).
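Assay format: 96-well plates, 48-hour exposure. Here, GI50 denotes the concentration required for 50% inhibition of growth. The concentration for full growth arrest is given as TGI.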

Legend:
Assay in all cases: NCI-60 cell line screen, 48 h
[1] = tested on: 786-0 renal
[2] = tested on: A498 renal
[3] = tested on: A549 NSCLC
[4] = tested on: ACHN renal
[5] = tested on: BT-549 breast
[6] = tested on: CAKI-1 renal
[7] = tested on: CCRF-CEM leukemia
[8] = tested on: COLO 205 colon
[9] = tested on: DU-145 prostate
[10] = tested on: EKVX NSCLC
[11] = tested on: HCC-2998 colon
[12] = tested on: HCT-116 colon
[13] = tested on: HCT-15 colon
[14] = tested on: HL-60(TB) leukemia
[15] = tested on: HOP-62 NSCLC
[16] = tested on: HOP-92 NSCLC
[17] = tested on: HS 578T breast
[18] = tested on: HT29 colon
[19] = tested on: IGROV1 ovarian
[20] = tested on: K-562 leukemia
[21] = tested on: KM12 colon
[22] = tested on: LOX IMVI melanoma
[23] = tested on: M14 melanoma
[24] = tested on: MALME-3M melanoma
[25] = tested on: MCF7 breast
[26] = tested on: MDA-MB-231 breast
[27] = tested on: MDA-MB-435
[28] = tested on: MOLT-4 leukemia
[29] = tested on: NCI-H226 lung
[30] = tested on: NCI-H460 lung
[31] = tested on: NCI-H522 lung
[32] = tested on: NCI/ADR-RES ovarian
[33] = tested on: OVCAR-4 ovarian
[34] = tested on: OVCAR-5 ovarian
[35] = tested on: OVCAR-8 ovarian
[36] = tested on: PC-3 prostate
[37] = tested on: RPMI-8226 leukemia
[38] = tested on: RXF 393 renal
[39] = tested on: SF-268 CNS
[40] = tested on: SF-295 CNS
[41] = tested on: SF-539 CNS
[42] = tested on: SK-MEL-2 melanoma
[43] = tested on: SK-MEL-28 melanoma
[44] = tested on: SK-MEL-5 melanoma
[45] = tested on: SK-OV-3 ovarian
[46] = tested on: SN12C renal
[47] = tested on: SNB-19 CNS
[48] = tested on: SNB-75 CNS
[49] = tested on: SR leukemia
[50] = tested on: SW-620 colon
[51] = tested on: T-47D breast
[52] = tested on: TK-10 renal
[53] = tested on: U251 CNS
[54] = tested on: UACC-257 melanoma
[55] = tested on: UACC-62 melanoma
[56] = tested on: UO-31 renal

## CCNC(=O)Oc1ccc(/C(=C(/C)c2ccc(OC)cc2)c2ccc(OCCN3CCCCCC3)cc2)cc1
[1]
  GI50: 1.86 µM
  TGI: 6.78 µM
[2]
  GI50: 2.67 µM
  TGI: 9.65 µM
[3]
  GI50: 3.88 µM
  TGI: 10.3 µM
[4]
  GI50: 6.04 µM
  TGI: 12.2 µM
[5]
  GI50: 5.06 µM
  TGI: 10.9 µM
[6]
  GI50: 2.34 µM
  TGI: 8.3 µM
[7]
  GI50: 2.25 µM
  TGI: 33.4 µM
[8]
  GI50: 1.07 µM
  TGI: 2.38 µM
[9]
  GI50: 6.76 µM
  TGI: 13.2 µM
[10]
  GI50: 6.39 µM
  TGI: 13.5 µM
[11]
  GI50: 2.93 µM
  TGI: 9.29 µM
[12]
  GI50: 2.57 µM
  TGI: 8.68 µM
[13]
  GI50: 1.57 µM
  TGI: 6.68 µM
[14]
  GI50: 1.39 µM
  TGI: 4.59 µM
[15]
  GI50: 5.84 µM
  TGI: 12.3 µM
[16]
  GI50: 1.89 µM
  TGI: 9.17 µM
[17]
  GI50: 2.48 µM
  TGI: 11.3 µM
[18]
  GI50: 1.66 µM
  TGI: 6.08 µM
[19]
  GI50: 5.42 µM
  TGI: 12.5 µM
[20]
  GI50: 1.22 µM
  TGI: 3.37 µM
[21]
  GI50: 8.88 µM
  TGI: 16.7 µM
[22]
  GI50: 0.865 µM
  TGI: 1.91 µM
[23]
  GI50: 0.913 µM
  TGI: 1.83 µM
[24]
  GI50: 1.1 µM
  TGI: 2.57 µM
[25]
  GI50: 0.786 µM
  TGI: 7.41 µM
[26]
  GI50: 2.74 µM
  TGI: 9.28 µM
[27]
  GI50: 3.69 µM
  TGI: 10.3 µM
[28]
  GI50: 1.44 µM
  TGI: 5.06 µM
[29]
  GI50: 6.42 µM
  TGI: 14.6 µM
[30]
  GI50: 1.95 µM
  TGI: 6.91 µM
[31]
  GI50: 6.43 µM
  TGI: 13.5 µM
[32]
  GI50: 4.41 µM
  TGI: 11.1 µM
[33]
  GI50: 5.16 µM
  TGI: 11.7 µM
[34]
  GI50: 6.48 µM
  TGI: 12.8 µM
[35]
  GI50: 5.72 µM
  TGI: 12.2 µM
[36]
  GI50: 2.75 µM
  TGI: 9.67 µM
[37]
  GI50: 1.18 µM
  TGI: 3.21 µM
[38]
  GI50: 1.3 µM
  TGI: 5.03 µM
[39]
  GI50: 6.69 µM
  TGI: 15 µM
[40]
  GI50: 1.15 µM
  TGI: 3.44 µM
[41]
  GI50: 2.08 µM
  TGI: 7.74 µM
[42]
  GI50: 5.18 µM
  TGI: 11.2 µM
[43]
  GI50: 1.45 µM
  TGI: 4.48 µM
[44]
  GI50: 2.23 µM
  TGI: 8.13 µM
[45]
  GI50: 5.01 µM
  TGI: 11.1 µM
[46]
  GI50: 5.55 µM
  TGI: 12.1 µM
[47]
  GI50: 5.92 µM
  TGI: 12.2 µM
[48]
  GI50: 6.03 µM
  TGI: 12.9 µM
[49]
  GI50: 1.06 µM
  TGI: 2.76 µM
[50]
  GI50: 1.3 µM
  TGI: 3.28 µM
[51]
  GI50: 1.23 µM
  TGI: 7.88 µM
[52]
  GI50: 9.35 µM
  TGI: 16.5 µM
[53]
  GI50: 2.55 µM
  TGI: 8.87 µM
[54]
  GI50: 1.06 µM
  TGI: 2.76 µM
[55]
  GI50: 1.79 µM
  TGI: 6.33 µM
[56]
  GI50: 1.43 µM
  TGI: 5.53 µM
